# ChEMBL document CHEMBL1158640, “Synthesis, analgesic and anti-inflammatory activities of some novel pyrazolines derivatives” (Bioorg Med Chem Lett, 2010)
# Calls of active or inactive are those of the source. The rule behind the calls is not given here.
# Assays:
# Rattus norvegicus [1] = test: Antiinflammatory activity in Wistar rat assessed as reduction of carrageenan-induced increase in paw volume at 30 mg/kg, po after 2 hrs; type: functional
# Rattus norvegicus [2] = test: Antiinflammatory activity in Wistar rat assessed as reduction of carrageenan-induced increase in paw volume at 30 mg/kg, po after 4 hrs; type: functional
# Rattus norvegicus [3] = test: Antiinflammatory activity in Wistar rat assessed as reduction of carrageenan-induced increase in paw volume at 30 mg/kg, po after 24 hrs; type: functional
# Rattus norvegicus [4] = test: Antiinflammatory activity in Wistar rat assessed as reduction of carrageenan-induced increase in paw volume at 30 mg/kg, po after 3 hrs; type: functional
# Rattus norvegicus [5] = test: Antiinflammatory activity in Wistar rat assessed as reduction of carrageenan-induced increase in paw volume at 1000 mg/kg, po; type: functional, organism-based; parameters: dose 1000 mg/kg
# Mus musculus [6] = test: Toxicity in Swiss albino mouse up to 1000 mg/kg, po; type: organism-based; parameters: dose 1000 mg/kg, route oral; conditions: in vivo
# Rattus norvegicus [7] = test: Toxicity in Wistar rat up to 1000 mg/kg, po; type: organism-based; parameters: dose 1000 mg/kg, route oral; conditions: in vivo
# Mus musculus [8] = test: Analgesic activity against acetic acid-induced writhing in Swiss albino mouse at 30 mg/kg, po; type: functional, organism-based; parameters: dose 30 mg/kg
SMILES,Activity (Rattus norvegicus [1]) [mL],Activity (Rattus norvegicus [2]) [mL],Activity (Rattus norvegicus [3]) [mL],Activity (Rattus norvegicus [4]) [mL],Activity (Rattus norvegicus [5]),Activity (Mus musculus [6]),Activity (Rattus norvegicus [7]),Activity (Mus musculus [8])
O=C([O-])Cc1ccccc1Nc1c(Cl)cccc1Cl.[Na+] [DICLOFENAC SODIUM],0.18,0.18,0.03,0.18,–,–,–,–
Cc1cc(C)c(O)c(C2=NNC(c3ccc(N4CCOCC4)cc3)C2)c1 (stereo unspecified),1.38,1.53,1.92,1.57,Active,Non-toxic,Non-toxic,–
Oc1ccc(Cl)cc1C1=NNC(c2ccc(N3CCOCC3)cc2)C1 (stereo unspecified),1.52,1.61,1.92,1.6,Active,Non-toxic,Non-toxic,–
Cc1ccc(O)c(C2=NN(C(=S)Nc3ccccc3)C(c3ccc(N4CCOCC4)cc3)C2)c1 (stereo unspecified),1.52,1.43,1.92,1.6,Active,Non-toxic,Non-toxic,–
Oc1ccccc1C1=NN(C(=S)Nc2ccccc2)C(c2ccc(N3CCOCC3)cc2)C1 (stereo unspecified),0.82,0.84,0.94,0.62,Active,Non-toxic,Non-toxic,–
Oc1c(Cl)cc(Cl)cc1C1=NNC(c2ccc(N3CCOCC3)cc2)C1 (stereo unspecified),1.41,1.75,1.72,1.46,Active,Non-toxic,Non-toxic,–
Oc1ccc(Cl)cc1C1=NN(C(=S)Nc2ccccc2)C(c2ccc(N3CCOCC3)cc2)C1 (stereo unspecified),0.64,0.72,0.86,0.72,Active,Non-toxic,Non-toxic,Active
Cc1cc(C)c(O)c(C2=NN(C(=S)Nc3ccccc3)C(c3ccc(N4CCOCC4)cc3)C2)c1 (stereo unspecified),1.41,1.63,1.73,1.81,Active,Non-toxic,Non-toxic,–
Oc1c(Cl)cc(Cl)cc1C1=NN(C(=S)Nc2ccccc2)C(c2ccc(N3CCOCC3)cc2)C1 (stereo unspecified),1.49,1.52,1.92,1.47,Active,Non-toxic,Non-toxic,–
Cc1cc(O)c(C2=NNC(c3ccc(N4CCOCC4)cc3)C2)cc1Cl (stereo unspecified),1.56,1.63,1.93,1.62,Active,Non-toxic,Non-toxic,–
Cc1cc(O)c(C2=NN(C(=S)Nc3ccccc3)C(c3ccc(N4CCOCC4)cc3)C2)cc1Cl (stereo unspecified),1.42,1.57,1.92,1.53,Active,Non-toxic,Non-toxic,–
Oc1ccc(Br)cc1C1=NNC(c2ccc(N3CCOCC3)cc2)C1 (stereo unspecified),0.86,0.64,0.98,0.52,Active,Non-toxic,Non-toxic,Active
Oc1ccc(Br)cc1C1=NN(C(=S)Nc2ccccc2)C(c2ccc(N3CCOCC3)cc2)C1 (stereo unspecified),0.87,0.91,0.92,0.69,Active,Non-toxic,Non-toxic,Active
Oc1ccccc1C1=NNC(c2ccc(N3CCOCC3)cc2)C1 (stereo unspecified),0.73,0.69,0.68,0.59,Active,Non-toxic,Non-toxic,–
Cc1ccc(O)c(C2=NNC(c3ccc(N4CCOCC4)cc3)C2)c1 (stereo unspecified),0.87,0.96,0.79,0.85,Active,Non-toxic,Non-toxic,Active
